Results on 19 compounds are retold here after patent US4376858A, “2-4-Diamino-5-methyl-6-[(3,4,5-trimethoxyanilino)methyl]quinazoline salts” (Warner Lambert Company, priority 1982, dated 1983).

Where a name gives a salt, the structure may show the parent alone.

The nature of series [1]: Solubility of prepared 2,4-diamino-5-methyl-6-[(3,4,5-trimethoxyanilino)methyl]quinazoline salts in water. It counts as physicochemical. The note with it: Table II, Method B: saturated 5.0 ml H2O overnight, filtrate diluted with 0.01 N HCl, 1440 min.
Assay in series [2]: as above
To be noted: for Solubility in water: Table II, Method A: saturated 2.0 ml H2O overnight, filtrate diluted with methanol, 1440 min; for Filtrate pH / Solubility: Table III, Prepared Salt; for water solubility (in words): qualitative conclusion from Tables I and II. It counts as physicochemical. How it is done:
Method A: Saturated 2.0 ml H2 O overnight, 0.5 ml of filtrate diluted to 10.0 ml with methanol, added 1 drop of 6 N KOH to UV cell.

Series [3] in a line: Solubility of the base 2,4-diamino-5-methyl-6-[(3,4,5-trimethoxyanilino)methyl]quinazoline in aqueous acids (shake-out). Type of series: physicochemical. The note with it: for Base Solubility in acid soln.: Table I; for Solubility / Filtrate pH: Table III.
Series [4] has as its system malaria. The note with it: reported in Great Britain Patent Specification No. 1,345,502; cited from earlier work.
Series [5] has as its system bacteria. The note with it: reported in Great Britain Patent Specification No. 1,345,502; cited from earlier work.
Series [6] concerns neoplasms. The note with it: Biochemical Pharmacology 28, 1983-1987; Cancer Research 39, 293-304; cited from earlier work.
Series [7] is described as follows: Stability and solid form of the salts. Type of series: physicochemical. The note with it: qualitative.
Where [8] appears, read: acid conc. .1 M, acid/base 2/1, * not saturated (isethionic, ethoxyacetic).
Setting [9] is: 0.1 M acid per method (head: 1 M soln.), 0.05 M base, shaken 4-12 hours, UV 321 nm.
Setting [10] is: lines marked *: .05 M acid, 1/1 acid/base.
Where [11] appears, read: listed as 2,4-diamino-5-methyl-6-[(3,4,5-trimethoxyanilino)methyl]quinazoline glucuronate.
Setting [12] is: acid conc. .06 M, acid/base 1/1.

Consider `COc1cc(NCc2ccc3nc(N)nc(N)c3c2C)cc(OC)c1OC` [3-Hydroxypropyl sulfonate], for which the Solubility in water in series [1] is 4.73 mg base/ml.
On to `COc1cc(NCc2ccc3nc(N)nc(N)c3c2C)cc(OC)c1OC` [Acetate], for which the Solubility in water in series [2] is listed as 1.72 mg base/ml.
Take `COc1cc(NCc2ccc3nc(N)nc(N)c3c2C)cc(OC)c1OC` [Benzene sulfonate]: in series [1], the Solubility in water is given as 1.24 mg base/ml. Further, the “Base Solubility in acid soln.” value turned out to be 1.89 mg base/ml in series [3] (lines marked *: .05 M acid, 1/1 acid/base, listed as Benzene sulfonic) and 7.17 mg base/ml in series [3] (0.1 M acid per method (head: 1 M soln.), 0.05 M base, shaken 4-12 hours, UV 321 nm, listed as Benzene sulfonic). The Solubility in series [3] (acid conc. .05 M, acid/base 1/1, * not saturated (isethionic), listed as Benzene sulfonic) is on record as 1.89 mg base/ml; in series [3] (acid conc. .1 M, acid/base 2/1, * not saturated (isethionic, ethoxyacetic), listed as Benzene sulfonic), 7.17 mg base/ml; in series [2] (listed as Benzene sulfonic), 1.24 mg base/ml. Further, the “Filtrate pH” value was determined as 2.95 in series [3] (acid conc. .05 M, acid/base 1/1, listed as Benzene sulfonic); 2.95 in series [3] (acid conc. .1 M, acid/base 2/1, listed as Benzene sulfonic); 4.45 in series [2] (listed as Benzene sulfonic).
`COc1cc(NCc2ccc3nc(N)nc(N)c3c2C)cc(OC)c1OC` [Ethane sulfonate]: in series [1], the Solubility in water was 2.64 mg base/ml.
As to `COc1cc(NCc2ccc3nc(N)nc(N)c3c2C)cc(OC)c1OC` [Ethoxyacetate], the Solubility in water in series [1] came out at 6.3 mg base/ml. Further, the “Base Solubility in acid soln.” value in series [3] (lines marked *: .05 M acid, 1/1 acid/base, listed as Ethoxyacetic) is reported as 19.7 mg base/ml; in series [3] (0.1 M acid per method (head: 1 M soln.), 0.05 M base, shaken 4-12 hours, UV 321 nm, listed as Ethoxyacetic), 19.5 mg base/ml. Moreover, the Solubility in series [3] (acid conc. .065 M, acid/base 1/1, * not saturated) is recorded as 19.7 mg base/ml; in series [3] (setting [8]) it was 19.5 mg base/ml; in series [2] (listed as Ethoxyacetic), 6.3 mg base/ml.
Turning to `COc1cc(NCc2ccc3nc(N)nc(N)c3c2C)cc(OC)c1OC` [Free base, 2,4-diamino-5-methyl-6-[(3,4,5-trimethoxyanilino)methyl]quinazoline], the Solubility in water in series [1] was 0.1 mg base/ml; in series [2], 0.2 mg base/ml. In addition, the antimalarial activity result in series [4] was “exhibiting antimalarial and antibacterial activity”. The antibacterial activity result in series [5] is “exhibiting antimalarial and antibacterial activity”. In addition, the antineoplastic activity entry in series [6] is given as “exhibit antineoplastic activity”.
Take `COc1cc(NCc2ccc3nc(N)nc(N)c3c2C)cc(OC)c1OC` [Galacturonic]: in series [3] (setting [9]), the “Base Solubility in acid soln.” value is reported as 25.1 mg base/ml. Besides, the “solid form (in words)” value in series [7] (listed as galacturonate) is “undesirable amorphous form”.
Turning to `COc1cc(NCc2ccc3nc(N)nc(N)c3c2C)cc(OC)c1OC` [Gentisate], the Solubility in water in series [1] is recorded as 0.28 mg base/ml; in series [2], 1.4-7.06 mg base/ml.
Consider `COc1cc(NCc2ccc3nc(N)nc(N)c3c2C)cc(OC)c1OC` [Gluconatete], for which the Solubility in water in series [1] is recorded as 2.55 mg base/ml.
As to `COc1cc(NCc2ccc3nc(N)nc(N)c3c2C)cc(OC)c1OC` [Gluconic], the “Base Solubility in acid soln.” value in series [3] (setting [10]) was 19.8 mg base/ml. The “solid form (in words)” value in series [7] (listed as gluconate) was “undesirable amorphous form”.
For the compound `COc1cc(NCc2ccc3nc(N)nc(N)c3c2C)cc(OC)c1OC` [Glucuronate, 2,4-Diamino-5-methyl-6-[(3,4,5-trimethoxyanilino)methyl]quinazoline D-glucuronate], in series [1], the Solubility in water was 109.4 mg base/ml. For the same compound, the “Base Solubility in acid soln.” value in series [3] (0.1 M acid per method (head: 1 M soln.), 0.05 M base, shaken 4-12 hours, UV 321 nm, listed as Glucuronic) was 34.35 mg base/ml. Moreover, in series [2] (setting [11]), the “water solubility (in words)” value is “higher degree of solubility”. Besides, the “solid form (in words)” value in series [7] (setting [11]) is recorded as “powdery rather than crystalline”.
With `COc1cc(NCc2ccc3nc(N)nc(N)c3c2C)cc(OC)c1OC` [Glycolic], the “Base Solubility in acid soln.” value in series [3] (setting [10]) was 4.73 mg base/ml; in series [3] (setting [9]) it was 4.13 mg base/ml. Also, the “Filtrate pH” value in series [3] (acid conc. .1 M, acid/base 1/1) amounted to 3.28; in series [3] (acid conc. .1 M, acid/base 2/1), 3.00; in series [2], 5.30. The Solubility in series [3] (acid conc. .1 M, acid/base 1/1) is 4.73 mg base/ml; in series [3] (setting [8]), 4.13 mg base/ml; in series [2] it was 2.55 mg base/ml.
Consider `COc1cc(NCc2ccc3nc(N)nc(N)c3c2C)cc(OC)c1OC` [Hydrochloride], for which the Solubility in water in series [2] came out at 3.22 mg base/ml.
In the case of `COc1cc(NCc2ccc3nc(N)nc(N)c3c2C)cc(OC)c1OC` [Isethionate, 2,4-Diamino-5-methyl-6-[(3,4,5-trimethoxyanilino)methyl]quinazoline monoisethionate], the results for the Solubility in water in series [1] and in series [2] were 24.78 mg base/ml and 23.93 mg base/ml, respectively. For the same compound, the “Base Solubility in acid soln.” value is recorded as 17.3 mg base/ml in series [3] (lines marked *: .05 M acid, 1/1 acid/base, listed as Isethionic) and 16.3 mg base/ml in series [3] (0.1 M acid per method (head: 1 M soln.), 0.05 M base, shaken 4-12 hours, UV 321 nm, listed as Isethionic). In addition, the Solubility in series [3] (acid conc. .05 M, acid/base 1/1, * not saturated (isethionic)) is given as 17.34 mg base/ml; in series [3] (setting [8]) it was 16.33 mg base/ml; in series [2] (listed as Isethionic), 24.8 mg base/ml. Also, the “Filtrate pH” value in series [3] (acid conc. .05 M, acid/base 1/1, listed as Isethionic) is 3.70; in series [3] (acid conc. .1 M, acid/base 2/1, listed as Isethionic) it was 1.83; in series [2] (listed as Isethionic) it was 5.30. In addition, the “water solubility (in words)” value in series [2] was “highly water soluble”. Moreover, in series [7], the “solid form (in words)” value is on record as “crystalline”. In addition, in series [7], the “stability (in words)” value is reported as “stable”.
For `COc1cc(NCc2ccc3nc(N)nc(N)c3c2C)cc(OC)c1OC` [Lactate], the Solubility in water in series [2] was 4.34 mg base/ml.
Turning to `COc1cc(NCc2ccc3nc(N)nc(N)c3c2C)cc(OC)c1OC` [Methane sulfonic], the “Base Solubility in acid soln.” value in series [3] (setting [10]) stood at 6.49 mg base/ml; in series [3] (setting [9]), 9.83 mg base/ml. Further, the “Filtrate pH” value was 3.00 in series [3] (setting [12]) and 5.32 in series [2]. Besides, the Solubility in series [3] (setting [12]) was determined as 6.5 mg base/ml; in series [3] (acid conc. .1 M, acid/base 1/.9) it was 8.74 mg base/ml; in series [2] it was 4.9 mg base/ml.
As to `COc1cc(NCc2ccc3nc(N)nc(N)c3c2C)cc(OC)c1OC` [N--(Morpholine)ethane-2-sulfonic], the “Base Solubility in acid soln.” value in series [3] (setting [9]) is given as 11.2 mg base/ml.
On the same count and under the same terms, the same measure for `COc1cc(NCc2ccc3nc(N)nc(N)c3c2C)cc(OC)c1OC` [d-Tartaric]: 1.57 mg base/ml; for `COc1cc(NCc2ccc3nc(N)nc(N)c3c2C)cc(OC)c1OC` [p-Toluene sulfonic]: 2.74 mg base/ml.
